From ChEMBL document CHEMBL1201861, “Genomics of Drug Sensitity in Cancer screening data, Wellcome Trust Sanger Institute”

Assays:
Test in all cases: cells
Conditions in all cases: Homo sapiens
BB49-HNC = assay type: functional, cell-based;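 also: cell viability assay read-out, reported as inhibition of BB49-HNC cell growth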
Description: SANGER: Inhibition of human BB49-HNC cell growth in a cell viability assay.

BT-474 = assay type: functional, cell-based
Description: SANGER: Inhibition of human BT-474 cell growth in a cell viability assay.

NCI-H1304 = assay type: functional, cell-based;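 also: growth inhibition of the cancer cell line, measured in a cell viability assay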
Description: SANGER: Inhibition of human NCI-H1304 cell growth in a cell viability assay.

HL-60 = assay type: functional, cell-based;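 also: growth inhibition of human HL-60 cells, read out with a cell viability assay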
Description: SANGER: Inhibition of human HL-60 cell growth in a cell viability assay.

KE-37 = assay type: functional, cell-based;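 also: growth inhibition of KE-37 cells, read out with a cell viability assay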
Description: SANGER: Inhibition of human KE-37 cell growth in a cell viability assay.

NTERA-2-cl-D1 = assay type: functional, cell-based;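 also: inhibition of cell growth, measured with a cell viability assay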
Description: SANGER: Inhibition of human NTERA-S-cl-D1 cell growth in a cell viability assay.

JAR = assay type: functional, cell-based;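 also: growth inhibition of human JAR cells determined with a cell viability assay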
Description: SANGER: Inhibition of human JAR cell growth in a cell viability assay.

OS-RC-2 = assay type: functional, cell-based;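 also: growth inhibition of human OS-RC-2 cells, measured by a cell viability assay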
Description: SANGER: Inhibition of human OS-RC-2 cell growth in a cell viability assay.

EW-13 = assay type: functional, cell-based;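 also: growth inhibition of EW-13 cells, read out with a cell viability assay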
Description: SANGER: Inhibition of human EW-13 cell growth in a cell viability assay.

HEL = assay type: functional, cell-based;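 also: growth inhibition of HEL cells, read out with a cell viability assay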
Description: SANGER: Inhibition of human HEL cell growth in a cell viability assay.

EW-1 = assay type: functional, cell-based
Description: SANGER: Inhibition of human EW-1 cell growth in a cell viability assay.

KS-1 = assay type: functional, cell-based;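 also: growth inhibition of KS-1 cells, read out with a cell viability assay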
Description: SANGER: Inhibition of human KS-1 cell growth in a cell viability assay.

SK-LMS-1 = assay type: functional, cell-based;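 also: growth inhibition of human SK-LMS-1 cells, read out with a cell viability assay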
Description: SANGER: Inhibition of human SK-LMS-1 cell growth in a cell viability assay.

ETK-1 = assay type: functional, cell-based;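 also: growth inhibition of human ETK-1 cells, read out with a cell viability assay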
Description: SANGER: Inhibition of human ETK-1 cell growth in a cell viability assay.

BE-13 = assay type: functional, cell-based;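 also: growth inhibition of human BE-13 cells, measured with a cell viability assay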
Description: SANGER: Inhibition of human BE-13 cell growth in a cell viability assay.

RCC10RGB = assay type: functional, cell-based;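 also: growth inhibition of human RCC10RGB cells, read out by a cell viability assay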
Description: SANGER: Inhibition of human RCC10RGB cell growth in a cell viability assay.

IST-MEL1 = assay type: functional, cell-based;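 also: growth inhibition of the cell line, read out with a cell viability assay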
Description: SANGER: Inhibition of human IST-MEL1 cell growth in a cell viability assay.

MOLT-16 = assay type: functional, cell-based;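 also: growth inhibition of human MOLT-16 cells, read out with a cell viability assay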
Description: SANGER: Inhibition of human MOLT-16 cell growth in a cell viability assay.

D-263MG = assay type: functional, cell-based
Description: SANGER: Inhibition of human D-263MG cell growth in a cell viability assay.

ES4 = assay type: functional, cell-based;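 also: growth inhibition of human ES4 cells, read out by a cell viability assay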
Description: SANGER: Inhibition of human ES4 cell growth in a cell viability assay.

MMAC-SF = assay type: functional, cell-based;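 also: growth inhibition of human MMAC-SF cells, read out with a cell viability assay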
Description: SANGER: Inhibition of human MMAC-SF cell growth in a cell viability assay.

DSH1 = assay type: functional, cell-based;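 also: growth inhibition of human DSH1 cells, measured with a cell viability readout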
Description: SANGER: Inhibition of human DSH1 cell growth in a cell viability assay.

A388 = assay type: functional, cell-based;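 also: growth inhibition of human A388 cells, read out with a cell viability assay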
Description: SANGER: Inhibition of human A388 cell growth in a cell viability assay.

A704 = assay type: functional, cell-based;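 also: growth inhibition of human A704 cells, read out with a cell viability assay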
Description: SANGER: Inhibition of human A704 cell growth in a cell viability assay.

CTV-1 = assay type: functional, cell-based;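 also: growth inhibition of the cell line, read out with a cell viability assay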
Description: SANGER: Inhibition of human CTV-1 cell growth in a cell viability assay.

COR-L88 = assay type: functional, cell-based;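 also: growth inhibition of COR-L88 cells, read out with a cell viability assay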
Description: SANGER: Inhibition of human COR-L88 cell growth in a cell viability assay.

TE-10 = assay type: functional, cell-based;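 also: growth inhibition of TE-10 cells, measured by a cell viability assay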
Description: SANGER: Inhibition of human TE-10 cell growth in a cell viability assay.

C2BBe1 = assay type: functional, cell-based;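 also: growth inhibition of C2BBe1 cells, read out through a viability assay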
Description: SANGER: Inhibition of human C2BBe1 cell growth in a cell viability assay.

SCH = assay type: functional, cell-based;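 also: growth inhibition of human SCH cells, read out in a cell viability assay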
Description: SANGER: Inhibition of human SCH cell growth in a cell viability assay.

HuTu80 = assay type: functional, cell-based, HUTU-80;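 also: growth inhibition of HuTu80 human cells, determined with a cell viability readout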
Description: SANGER: Inhibition of human HUTU-80 cell growth in a cell viability assay.

TE-11 = assay type: functional, cell-based;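 also: growth inhibition of human TE-11 cells, read out by a cell viability assay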
Description: SANGER: Inhibition of human TE-11 cell growth in a cell viability assay.

LAMA-84 = assay type: functional, cell-based;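 also: growth inhibition of LAMA-84 cells, read out with a cell viability assay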
Description: SANGER: Inhibition of human LAMA-84 cell growth in a cell viability assay.

LNCaP-Clone-FGC = assay type: functional, cell-based
Description: SANGER: Inhibition of human LNCaP-Clone-FGC cell growth in a cell viability assay.

KARPAS-45 = assay type: functional, cell-based;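 also: inhibition of cell line growth, read out through a viability assay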
Description: SANGER: Inhibition of human KARPAS-45 cell growth in a cell viability assay.

NCI-H82 = assay type: functional, cell-based;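 also: growth inhibition of NCI-H82 cells, measured with a cell viability readout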
Description: SANGER: Inhibition of human NCI-H82 cell growth in a cell viability assay.

ES5 = assay type: functional, cell-based;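 also: growth inhibition of human ES5 cells, read out by a cell viability assay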
Description: SANGER: Inhibition of human ES5 cell growth in a cell viability assay.

RH-1 = assay type: functional, cell-based;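 also: growth inhibition of human RH-1 cells, read out with a cell viability assay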
Description: SANGER: Inhibition of human RH-1 cell growth in a cell viability assay.

BV-173 = assay type: functional, cell-based
Description: SANGER: Inhibition of human BV-173 cell growth in a cell viability assay.

SK-UT-1 = assay type: functional, cell-based;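 also: growth inhibition of SK-UT-1 cells, measured by a cell viability assay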
Description: SANGER: Inhibition of human SK-UT-1 cell growth in a cell viability assay.

LB831-BLC = assay type: functional, cell-based;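 also: growth inhibition of LB831-BLC cells, read out with a cell viability assay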
Description: SANGER: Inhibition of human LB831-BLC cell growth in a cell viability assay.

MFM-223 = assay type: functional, cell-based
Description: SANGER: Inhibition of human MFM-223 cell growth in a cell viability assay.

COLO-684 = assay type: functional, cell-based
Description: SANGER: Inhibition of human COLO-684 cell growth in a cell viability assay.

KMOE-2 = assay type: functional, cell-based;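 also: growth inhibition of human KMOE-2 cells, read out with a cell viability assay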
Description: SANGER: Inhibition of human KMOE-2 cell growth in a cell viability assay.

GT3TKB = assay type: functional, cell-based;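 also: growth inhibition of the cell line, read out with a cell viability assay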
Description: SANGER: Inhibition of human GT3TKB cell growth in a cell viability assay.

8-MG-BA = assay type: functional, cell-based;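 also: growth inhibition of 8-MG-BA cells, read out with a cell viability assay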
Description: SANGER: Inhibition of human 8-MG-BA cell growth in a cell viability assay.

LXF-289 cell line = assay type: functional, cell-based
Description: SANGER: Inhibition of human LXF-289 cell growth in a cell viability assay.

LB1047-RCC = assay type: functional, cell-based;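 also: inhibition of cell growth, determined with a cell viability assay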
Description: SANGER: Inhibition of human LB1047-RCC cell growth in a cell viability assay.

MEG-01 = assay type: functional, cell-based;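 also: growth inhibition of MEG-01 cells, read out by a cell viability assay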
Description: SANGER: Inhibition of human MEG-01 cell growth in a cell viability assay.

Mo = assay type: functional, cell-based
Description: SANGER: Inhibition of human Mo-T cell growth in a cell viability assay.

C8166 = assay type: functional, cell-based;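 also: growth inhibition of human C8166 cells measured by a cell viability assay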
Description: SANGER: Inhibition of human C8166 cell growth in a cell viability assay.

KM12 = assay type: functional, cell-based;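 also: KM12 cell growth inhibition, read out with a cell viability assay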
Description: SANGER: Inhibition of human KM12 cell growth in a cell viability assay.

MN-60 = assay type: functional, cell-based;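 also: growth inhibition of the MN-60 cell line, determined with a cell viability assay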
Description: SANGER: Inhibition of human MN-60 cell growth in a cell viability assay.

SNU-5 = assay type: functional, cell-based;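 also: cell viability readout used to measure growth inhibition in human NCI-SNU-5 cells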
Description: SANGER: Inhibition of human NCI-SNU-5 cell growth in a cell viability assay.

NOMO-1 = assay type: functional, cell-based;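 also: growth inhibition of human NOMO-1 cells measured by a cell viability assay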
Description: SANGER: Inhibition of human NOMO-1 cell growth in a cell viability assay.

TE-6 = assay type: functional, cell-based;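 also: growth inhibition of TE-6 cells, read out with a cell viability assay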
Description: SANGER: Inhibition of human TE-6 cell growth in a cell viability assay.

L-428 = assay type: functional, cell-based
Description: SANGER: Inhibition of human L-428 cell growth in a cell viability assay.

COLO-824 = assay type: functional, cell-based
Description: SANGER: Inhibition of human COLO-824 cell growth in a cell viability assay.

A498 = assay type: functional, cell-based;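 also: growth inhibition of human A498 cells, read out with a cell viability assay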
Description: SANGER: Inhibition of human A498 cell growth in a cell viability assay.

CCRF-CEM = assay type: functional, cell-based;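 also: inhibition of CCRF-CEM cell growth, measured by a cell viability assay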
Description: SANGER: Inhibition of human CCRF-CEM cell growth in a cell viability assay.

KM-H2 = assay type: functional, cell-based;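 also: growth inhibition of KM-H2 cells, read out by a cell viability assay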
Description: SANGER: Inhibition of human KM-H2 cell growth in a cell viability assay.

OCUB-M = assay type: functional, cell-based;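 also: growth inhibition of the cancer cell line, read out through a cell viability assay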
Description: SANGER: Inhibition of human OCUB-M cell growth in a cell viability assay.

KY821 = assay type: functional, cell-based
Description: SANGER: Inhibition of human KY821 cell growth in a cell viability assay.

MHH-NB-11 = assay type: functional, cell-based
Description: SANGER: Inhibition of human MHH-NB-11 cell growth in a cell viability assay.

KNS-42 = assay type: functional, cell-based
Description: SANGER: Inhibition of human KNS-42 cell growth in a cell viability assay.

A3-KAW = assay type: functional, cell-based
Description: SANGER: Inhibition of human A3-KAW cell growth in a cell viability assay.

DOHH-2 = assay type: functional, cell-based
Description: SANGER: Inhibition of human DOHH-2 cell growth in a cell viability assay.

In the case of `Cc1n[nH]c2ccc(-c3cncc(OC[C@@H](N)Cc4c[nH]c5ccccc45)c3)cc12` [A-443654], the IC50 (BB49-HNC) is reported as > 1020 nM, the IC50 (BT-474) is reported as 584 nM and the IC50 (NCI-H1304) is reported as 163 nM. It also gave an IC50 (HL-60) of 500 nM, an IC50 (KE-37) of 110 nM and an IC50 (NTERA-2-cl-D1) of 27.6 nM. The IC50 (JAR) was 156 nM, the IC50 (OS-RC-2) was 175 nM and the IC50 (EW-13) was > 1020 nM. The IC50 (HEL) was 422 nM, the IC50 (EW-1) was 221 nM and the IC50 (KS-1) was 53.5 nM. For the same compound, the IC50 (SK-LMS-1) was 276 nM, the IC50 (ETK-1) was 101 nM and the IC50 (BE-13) was 502 nM. For the same compound, the IC50 (RCC10RGB) was > 1020 nM, the IC50 (IST-MEL1) was 447 nM and the IC50 (MOLT-16) was 83.7 nM. The IC50 (D-263MG) was > 1020 nM, the IC50 (ES4) was 37.7 nM and the IC50 (MMAC-SF) was > 1020 nM. The IC50 (DSH1) was 361 nM, the IC50 (A388) was 84.3 nM and the IC50 (A704) was 261 nM. For the same compound, the IC50 (CTV-1) was 323 nM, the IC50 (COR-L88) was 738 nM and the IC50 (TE-10) was 89.4 nM. The IC50 (C2BBe1) was > 1020 nM, the IC50 (SCH) was > 1020 nM and the IC50 (HuTu80) was 114 nM. The IC50 (TE-11) was 130 nM, the IC50 (LAMA-84) was 610 nM and the IC50 (LNCaP-Clone-FGC) was > 1020 nM. The IC50 (KARPAS-45) was 296 nM, the IC50 (NCI-H82) was 164 nM and the IC50 (ES5) was > 1020 nM. For the same compound, the IC50 (RH-1) was > 1020 nM, the IC50 (BV-173) was 269 nM and the IC50 (SK-UT-1) was 81.4 nM. The IC50 (LB831-BLC) was 194 nM, the IC50 (MFM-223) was > 1020 nM and the IC50 (COLO-684) was 79.5 nM. The IC50 (KMOE-2) was > 1020 nM, the IC50 (GT3TKB) was > 1020 nM and the IC50 (8-MG-BA) was 163 nM. The IC50 (LXF-289 cell line) was 179 nM, the IC50 (LB1047-RCC) was 87.2 nM and the IC50 (MEG-01) was 814 nM. For the same compound, the IC50 (Mo) was > 1020 nM, the IC50 (C8166) was > 1020 nM and the IC50 (KM12) was 141 nM. For the same compound, the IC50 (MN-60) was 487 nM, the IC50 (SNU-5) was > 1020 nM and the IC50 (NOMO-1) was 561 nM. The IC50 (TE-6) was 860 nM, the IC50 (L-428) was > 1020 nM and the IC50 (COLO-824) was > 1020 nM. For the same compound, the IC50 (A498) was > 1020 nM, the IC50 (CCRF-CEM) was 144 nM and the IC50 (KM-H2) was > 1020 nM. For the same compound, the IC50 (OCUB-M) was 25.7 nM, the IC50 (KY821) was 246 nM and the IC50 (MHH-NB-11) was > 1020 nM. The IC50 (KNS-42) was 248 nM, the IC50 (A3-KAW) was 196 nM and the IC50 (DOHH-2) was 240 nM.

`CC(O)(CS(=O)(=O)c1ccc(F)cc1)C(=O)Nc1ccc(C#N)c(C(F)(F)F)c1` (configuration not stated) [BICALUTAMIDE] was tested, and the IC50 (BB49-HNC) was > 1020 nM, the IC50 (BT-474) was > 1020 nM and the IC50 (NCI-H1304) was > 1020 nM. The IC50 (HL-60) was > 1020 nM, the IC50 (KE-37) was > 1020 nM and the IC50 (NTERA-2-cl-D1) was > 1020 nM. The IC50 (JAR) was > 1020 nM, the IC50 (OS-RC-2) was > 1020 nM and the IC50 (EW-13) was > 1020 nM. The IC50 (HEL) was > 1020 nM, the IC50 (EW-1) was > 1020 nM and the IC50 (KS-1) was > 1020 nM. For the same compound, the IC50 (SK-LMS-1) was > 1020 nM, the IC50 (ETK-1) was > 1020 nM and the IC50 (BE-13) was > 1020 nM. The IC50 (RCC10RGB) was > 1020 nM, the IC50 (IST-MEL1) was > 1020 nM and the IC50 (MOLT-16) was > 1020 nM. For the same compound, the IC50 (D-263MG) was > 1020 nM, the IC50 (ES4) was > 1020 nM and the IC50 (MMAC-SF) was > 1020 nM. The IC50 (DSH1) was > 1020 nM, the IC50 (A388) was > 1020 nM and the IC50 (A704) was > 1020 nM. For the same compound, the IC50 (CTV-1) was > 1020 nM, the IC50 (COR-L88) was > 1020 nM and the IC50 (TE-10) was > 1020 nM. For the same compound, the IC50 (C2BBe1) was > 1020 nM, the IC50 (SCH) was > 1020 nM and the IC50 (HuTu80) was > 1020 nM. For the same compound, the IC50 (TE-11) was > 1020 nM, the IC50 (LAMA-84) was > 1020 nM and the IC50 (LNCaP-Clone-FGC) was > 1020 nM. For the same compound, the IC50 (KARPAS-45) was > 1020 nM, the IC50 (NCI-H82) was > 1020 nM and the IC50 (ES5) was > 1020 nM. The IC50 (RH-1) was > 1020 nM, the IC50 (BV-173) was > 1020 nM and the IC50 (SK-UT-1) was > 1020 nM. The IC50 (LB831-BLC) was > 1020 nM, the IC50 (MFM-223) was > 1020 nM and the IC50 (COLO-684) was > 1020 nM. For the same compound, the IC50 (KMOE-2) was > 1020 nM, the IC50 (GT3TKB) was > 1020 nM and the IC50 (8-MG-BA) was > 1020 nM. For the same compound, the IC50 (LXF-289 cell line) was > 1020 nM, the IC50 (LB1047-RCC) was > 1020 nM and the IC50 (MEG-01) was > 1020 nM. For the same compound, the IC50 (Mo) was > 1020 nM, the IC50 (C8166) was > 1020 nM and the IC50 (KM12) was > 1020 nM. For the same compound, the IC50 (MN-60) was > 1020 nM, the IC50 (SNU-5) was > 1020 nM and the IC50 (NOMO-1) was > 1020 nM. For the same compound, the IC50 (TE-6) was > 1020 nM, the IC50 (L-428) was > 1020 nM and the IC50 (COLO-824) was > 1020 nM. For the same compound, the IC50 (A498) was > 1020 nM, the IC50 (CCRF-CEM) was > 1020 nM and the IC50 (KM-H2) was > 1020 nM. The IC50 (OCUB-M) was > 1020 nM, the IC50 (KY821) was > 1020 nM and the IC50 (MHH-NB-11) was > 1020 nM. The IC50 (KNS-42) was > 1020 nM, the IC50 (A3-KAW) was > 1020 nM and the IC50 (DOHH-2) was > 1020 nM.
